This test has as its system ornithine decarboxylase (ODC). The experiment in a line: ODC assay: inhibition of TPA induction of ornithine decarboxylase (ODC) activity. Format: biochemical. Particulars: for IC60: 60% inhibition in the ODC assay (TPA induction); for IC80: 80% inhibition in the ODC assay (TPA induction), printed in the IC60 column marked (IC80). The source says: A classic measure of retinoic acid activity involves measuring the effects of retinoic acid on ornithine decarboxylase. The original work on the correlation between retinoic acid and decrease in cell proliferation was done by Verma & Boutwell, Cancer Research, 1977, 37,2196-2201. That reference discloses that ornithine decarboxylase (ODC) activity increased precedent to polyamine biosynthesis. It has been established elsewhere that increases in polyamine synthesis can be correlated or associated with cellular proliferation. Thus, if ODC activity could be inhibited, cell hyperproliferation could be modulated. Although all cases for ODC activity increases are unknown, it is known that 12-0-tetradecanoylphorbol-13-acetate (TPA) induces ODC activity. Retinoic acid inhibits this induction of ODC activity by TPA. […] Activity of exemplary compounds of the present invention in the above-described ODC assay is disclosed in Table 1 which provides the IC60 concentration for the respective exemplary compound. ("IC60 " is that concentration of the test compound which causes 60% inhibition in the ODC assay. By analogy, "IC80, for example, is that concentration of the test compound which causes 80% inhibition in the ODC assay.)

The values below come from US5808124A, “O- or S-substituted dihydronaphthalene derivatives having retinoid and/or retinoid antagonist-like biological activity” (Allergan, priority 1996, dated 1998).

With `CCOC(=O)c1ccc(/N=N/c2ccc3c(c2)C(OCOC)CCC3(C)C)cc1` (racemic) [Compound D6, (+/-) ethyl 4-[(5,5-dimethyl-8-(methoxymethyloxy)-5,6,7,8-tetrahydronaphthalen-2-yl)azo]benzoate], the IC60 was 1.9 nmols. For the molecule `CCO/N=C1\CCC(C)(C)c2ccc(/C=C/c3ccc(C(=O)OCC)cc3)cc21` [Compound A5, ethyl (E)-4-[2-(5,5-dimethyl-5,6-dihydro-8(7H)-anti-(O-ethyl oxime)-naphthalen-2-yl)ethenyl]-benzoate], the IC60 is reported as 10.3 nmols.

Take `CCOC(=O)c1ccc(/C=C/c2ccc3c(c2)C(Sc2ccccc2)=CCC3(C)C)cc1` [Compound A16, ethyl (E)-4-[2-(5,6-dihydro-5,5-dimethyl-8-(phenylthio)-naphthalen-2-yl)ethenyl]benzoate]: the IC80 was 4.3 nmols.

Consider `CCOC(=O)c1ccc(/C=C/c2ccc3c(c2)C2(CCC3(C)C)SCCCS2)cc1` [Compound A23], for which the IC60 is recorded as 43.7 nmols. On the same count and under the same terms, the result for `CCO/N=C1\CCC(C)(C)c2ccc(/C(C)=C/C=C/C(C)=C/C(=O)OCC)cc21` [Compound C22b, Ethyl 7-[4,4-dimethyl-3,4-dihydro-1(2H)-anti-(O-ethyl oxime)-naphth-7-yl]3,7-dimethyl-hepta-2(E),4(E),6(E)-trienoate] reads 10 nmols. The molecule `CC1(C)CC=C(c2cccs2)c2ccc(C(=O)/C=C/c3ccc(C(=O)O)cc3)cc21` [Compound D34, 4-[3-oxo-3-(7,8-dihydro-5-(2-thienyl)-8.8-dimethyl-2-naphthalenyl) - 1-propenyl]-benzoic acid] registered an IC80 of 4.3 nmols.
